Measured values published in US8461328B2, “Tricyclic heterocyclic compounds, compositions and methods of use thereof” (Genentech, Inc., priority 2010, dated 2013).

Key:
Assay type in all cases: biochemical
[1] = target: T1, JAK1 (Homo sapiens, UniProt P23458); test: JAK1 inhibition (Table 4); conditions: read-out: JAK1 Ki
T1 construct: made in house; host or cells: SF9 insect cells (baculovirus)

[2] = target: T2, JAK2 (Homo sapiens, UniProt O60674); test: JAK2 inhibition (Table 4); conditions: read-out: JAK2 Ki
T2 construct: made in house; host or cells: SF9 insect cells (baculovirus)
T2 sequence (O60674 812-1132): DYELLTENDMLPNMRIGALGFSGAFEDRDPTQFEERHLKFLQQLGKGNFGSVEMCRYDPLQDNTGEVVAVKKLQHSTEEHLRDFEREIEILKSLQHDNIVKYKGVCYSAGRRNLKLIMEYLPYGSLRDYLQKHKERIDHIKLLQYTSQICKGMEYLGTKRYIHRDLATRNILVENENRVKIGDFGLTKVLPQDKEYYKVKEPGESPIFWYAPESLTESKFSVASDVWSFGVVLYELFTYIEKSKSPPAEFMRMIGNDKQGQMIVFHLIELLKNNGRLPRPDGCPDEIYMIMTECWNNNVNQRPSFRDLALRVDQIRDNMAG

[3] = target: T3, TYK2 (Homo sapiens, UniProt P29597); test: TYK2 inhibition (Table 4)
T3 construct: made in house; host or cells: SF9 insect cells (baculovirus)
T3 sequence (P29597 873-1187): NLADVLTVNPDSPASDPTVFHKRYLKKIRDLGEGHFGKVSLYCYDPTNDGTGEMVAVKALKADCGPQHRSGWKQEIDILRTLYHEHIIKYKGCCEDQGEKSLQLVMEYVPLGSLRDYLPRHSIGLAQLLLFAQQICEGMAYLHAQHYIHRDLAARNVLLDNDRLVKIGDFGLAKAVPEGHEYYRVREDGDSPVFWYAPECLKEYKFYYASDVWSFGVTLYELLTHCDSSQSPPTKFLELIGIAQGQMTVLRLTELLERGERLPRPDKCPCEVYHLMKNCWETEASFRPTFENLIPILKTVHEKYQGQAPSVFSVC

[4] = target: T4, JAK3 (Homo sapiens, UniProt P52333); test: JAK3 inhibition (Table 4); conditions: read-out: JAK3 Ki
T4 construct: made in house; host or cells: SF9 insect cells (baculovirus)
T4 sequence (P52333 783-1124): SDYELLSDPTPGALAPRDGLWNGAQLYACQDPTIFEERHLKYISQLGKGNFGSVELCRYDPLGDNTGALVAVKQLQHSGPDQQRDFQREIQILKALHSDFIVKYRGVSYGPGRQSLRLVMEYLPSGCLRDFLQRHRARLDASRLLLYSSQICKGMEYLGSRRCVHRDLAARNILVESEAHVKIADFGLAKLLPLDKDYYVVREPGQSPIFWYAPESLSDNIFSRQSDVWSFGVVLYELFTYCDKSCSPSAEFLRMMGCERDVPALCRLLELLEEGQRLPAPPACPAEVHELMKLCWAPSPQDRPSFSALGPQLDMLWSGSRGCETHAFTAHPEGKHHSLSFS

T1 sequence (P23458 852-1154): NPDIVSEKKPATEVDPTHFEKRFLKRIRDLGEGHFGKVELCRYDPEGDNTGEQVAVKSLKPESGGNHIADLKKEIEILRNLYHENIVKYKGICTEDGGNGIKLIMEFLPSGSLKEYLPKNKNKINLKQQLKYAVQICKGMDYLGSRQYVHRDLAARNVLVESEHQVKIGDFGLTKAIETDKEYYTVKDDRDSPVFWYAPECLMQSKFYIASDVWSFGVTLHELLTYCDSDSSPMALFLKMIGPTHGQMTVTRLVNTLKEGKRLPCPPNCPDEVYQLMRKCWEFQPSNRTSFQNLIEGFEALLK

SMILES	Ki [1] [µM]	Ki [2] [µM]	Ki [3] [µM]	Ki [4] [µM]
c1cc2c(ncc3ncn([C@@H]4CCCNC4)c32)[nH]1 [Example 2, (R)-1-Piperidin-3-yl-1,6-dihydro-1,2,3,5,6-tetraaza-as-indacene]	0.177	0.518	1.51	0.913
CNC(=O)OC1CCC(n2c(C)nc3cnc4[nH]ccc4c32)CC1 (stereo not shown) [Example 751, methyl-carbamic acid 4-(2-methyl-6H-1,3,5,6-tetraaza-as-indacen-1-yl)-cyclohexyl ester]	0.00783	0.0279	0.0839	0.0794
c1cc2c(ncc3ncn(C4CCCCNC4)c32)[nH]1 (single isomer, unassigned) [Example 110a, 1-Azepan-3-yl-1,6-dihydro-1,2,3,5,6-tetraaza-as-indacene]	0.0136	0.0818	0.106	0.194
O=C(NC1CCC(n2cnc3cnc4[nH]ccc4c32)CC1)OCc1cccnc1 (stereo not shown) [Example 744, [4-(6H-1,3,5,6-tetraaza-as-indacen-1-yl)-cyclohexyl]-carbamic acid pyridin-3-ylmethyl ester]	0.00715	0.0178	0.086	0.0892
OC1CCCC(n2nnc3cnc4[nH]ccc4c32)C1 (single isomer, unassigned) [Example 554, 3-(6H-1,2,3,5,6-Pentaaza-as-indacen-1-yl)-cyclohexanol]	0.0133	0.0316	0.0606	0.0773
C#CCCN1CCC(n2c([C@@H](C)O)nc3cnc4[nH]ccc4c32)CC1 [Example 871, (R)-1-[1-(1-But-3-ynyl-piperidin-4-yl)-1,6-dihydro-1,3,5,6-tetraaza-as-indacen-2-yl]-ethanol]	0.0597	0.29	1.17	0.177
OC[C@]1(O)CC[C@H](n2nnc3cnc4[nH]ccc4c32)CC1 [Example 715, Trans-1-Hydroxymethyl-4-(6H-1,2,3,5,6-pentaaza-as-indacen-1-yl)-cyclohexanol]	0.0115	0.0169	0.0582	0.109
O=C(Cc1nc2cnc3[nH]ccc3c2n1C1CCN(Cc2ccccc2)CC1)N1CC(F)C1 [Example 258, 2-[1-(1-Benzyl-piperidin-4-yl)-1,6-dihydro-1,3,5,6-tetraaza-as-indacen-2-yl)-1-(3-fluoro-azetidin-1-yl)-ethanone]	0.0288	0.125	1.81	0.0144
N#CCCN1CCC(n2c(COCC3CCCC3)nc3cnc4[nH]ccc4c32)CC1 [Example 838, 3-[4-(2-Cyclopentylmethoxymethyl-6H-1,3,5,6-tetraaza-as-indacen-1-yl)-piperidin-1-yl]-propionitrile]	0.0542	0.0855	0.618	0.0904
CC(C)N1CC(c2nc3cnc4[nH]ccc4c3n2C2CCN(CCC#N)CC2)CC1=O (racemic) [Example 388, 3-{4-[2-(1-Isopropyl-5-oxo-pyrrolidin-3-yl)-6H-1,3,5,6-tetraaza-as-indacen-1-yl]-piperidin-1-yl}-propionitrile]	0.0236	0.167	0.446	0.0773
CC1CC1COCc1nc2cnc3[nH]ccc3c2n1C1CCN(CCC#N)CC1 (stereo not shown) [Example 841, 3-{4-[2-(2-Methyl-cyclopropylmethoxymethyl)-6H-1,3,5,6-tetraaza-as-indacen-1-yl]-piperidin-1-yl}-propionitrile]	0.0665	0.109	0.771	0.147
CNC(=O)OC1CCC(n2cnc3cnc4[nH]ccc4c32)CC1 (stereo not shown) [Example 769, Methyl-carbamic acid 4-(6H-1,3,5,6-tetraaza-as-indacen-1-yl)-cyclohexyl ester]	0.0096	0.0166	0.0625	0.104
Cc1n[nH]c(C)c1CCc1nc2cnc3[nH]ccc3c2n1C1CCOCC1 [Example 471, 2-[2-(3,5-Dimethyl-1H-pyrazol-4-yl)-ethyl]-1-(tetrahydro-pyran-4-yl)-1,6-dihydro-1,3,5,6-tetraaza-as-indacene]	0.278	0.781	0.793	0.727
N#CCCN1CCC(n2c(C3CC3(F)F)nc3cnc4[nH]ccc4c32)CC1 (racemic) [Example 404, 3-{4-[2-(2,2-Difluoro-cyclopropyl)-6H-1,3,5,6-tetraaza-as-indacen-1-yl]-piperidin-1-yl}-propionitrile]	0.00727	0.018	0.1	0.0293

The next compounds have a lower Ki [1] than those just listed; values first:

Ki [1] [µM]	Ki [2] [µM]	Ki [3] [µM]	Ki [4] [µM]	SMILES
0.00518	0.0224	0.0988	0.0204	N#CCCN1CCC(n2c(CNC(=O)c3cccc(F)c3)nc3cnc4[nH]ccc4c32)CC1 [Example 505, N-{1-[1-(2-Cyano-ethyl)-piperidin-4-yl]-1,6-dihydro-1,3,5,6-tetraaza-as-indacen-2-ylmethyl}-3-fluoro-benzamide]
0.00358	0.0965	0.0266	0.119	C[C@@H](O)c1nc2cnc3[nH]ccc3c2n1C1CCCC1 [Example 867, (R)-1-(1-Cyclopentyl-1,6-dihydro-1,3,5,6-tetraaza-as-indacen-2-yl)-ethanol]
0.0029	0.00531	0.0337	0.0107	N#CCCN1CCC(n2c(C3CC3)nc3cnc4[nH]ccc4c32)CC1 [Example 337, 3-[4-(2-Cyclopropyl-6H-1,3,5,6-tetraaza-as-indacen-1-yl)-piperidin-1-yl]-propionitrile]
0.00217	0.0176	0.0666	0.0306	Cn1nccc1C(=O)NCc1nc2cnc3[nH]ccc3c2n1C1CCN(CCC#N)CC1 [Example 209, 2-Methyl-2H-pyrazole-3-carboxylic acid {1-[1-(2-cyano-ethyl)-piperidin-4-yl]-1,6-dihydro-1,2,3,5,6-tetraaza-as-indacen-2-ylmethyl}-amide]
0.0013	0.00267	0.0309	0.00857	N#Cc1ccc(CN2CCC(n3cnc4cnc5[nH]ccc5c43)CC2)cc1 [Example 48, 4-[4-(6H-1,3,5,6-Tetraaza-as-indacen-1-yl)-piperidin-1-ylmethyl]benzonitrile]
0.0009	0.00169	0.0209	0.0115	c1cc2c(ncc3ncn(C4CCN(Cc5cncs5)CC4)c32)[nH]1 [Example 104, 1-(1-Thiazol-5-ylmethyl-piperidin-4-yl)-1,6-dihydro-1,3,5,6-tetraaza-as-indacene]
0.00058	0.00554	0.0124	0.00913	Cc1nc2cnc3[nH]ccc3c2n1[C@H]1CC[C@@H](NC(=O)CC(F)(F)F)C1 [Example 731, 3,3,3-Trifluoro-N-[(1R,3S)-3-(2-methyl-6H-1,3,5,6-tetraaza-as-indacen-1-yl)-cyclopentyl]-propionamide]
0.0003	0.00098	0.0357	0.0265	N#Cc1cccc(CN2CCC(n3cnc4cnc5[nH]ccc5c43)CC2)c1 [Example 49, 3-[4-(6H-1,3,5,6-Tetraaza-as-indacen-1-yl)-piperidin-1-ylmethyl]benzonitrile]
